Assay results reported in US11958812B2, “3, 5-disubstituted pyridine and 3, 5-disubstituted pyridazine derivatives and pharmaceutical use of same” (MITSUBISHI TANABE PHARMA CORPORATION, priority 2018, dated 2024).

Tests used:
human recombinant ATX = human recombinant ATX (Homo sapiens, UniProt Q13822); test: Enzyme inhibition test (choline release from LPC, Amplex UltraRed fluorescence); assay type: biochemical; details: 200 μM LPC substrate, 1 hr at room temperature, read-out: Experimental Example 1 human ATX IC50
Method in brief: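 Recombinant human ATX (enzyme solution 0.4 ng/µL) acted on a mix of 200 µM LPC, Amplex UltraRed, peroxidase and choline oxidase in Tris pH 8.0 buffer with BSA and 0.0025% Triton X-100, 1 h at room temperature. Choline was read by fluorescence (Ex 525/Em 598 nm) against a choline chloride standard. IC50 came from % inhibition relative to enzyme-free and inhibitor-free controls.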

ATX activity in plasma = molecular target: T1, ATX activity in plasma (Rattus norvegicus, UniProt Q64610); test: Measurement of ATX activity in plasma (ex vivo), rat single administration test; parameters: species or system male Wistar rat
T1 construct: from tissue; host or cells: plasma of male Wistar rats after oral dosing
Experimental: [Measurement of ATX Activity in Plasma (Ex Vivo)]
A compound administration solution prepared by wet pulverization in a mixer mill (type: MM400) for 10 min and adjusting to a given concentration with 0.5% aqueous carboxymethylcellulose solution was orally administered to male Wistar rat (5-week-old when used) at 5 mL/kg. Blood samples were collected from the cervical vein over time at 8 to 24 hr after administration. The blood was heparin-treated using a micro blood collection tube Capiject (CJ-AL, TERUMO CORPORATION), and the plasma was separated by centrifugation (4° C., 12,000 rpm, for 2 min), and preserved at −80° C. The rats after blood sampling were euthanized by exsanguination from the caudal vena cava under isoflurane inhalation anesthesia. The measurement of ATX activity in plasma was evaluated using the concentration of choline in the plasma, which was liberated from lysophosphatidylcholine (substrate of ATX) by the lysophospholipase D activity of ATX, as an index. An equal amount of 2× assay buffer (200 mM Tris-HCl pH9.0, 10 mM MgCl2, 1 M NaCl, 0.1% Triton X-100) is added to plasma (12 μL) and reacted at 37° C. for 6 hr. The reaction mixture (10 μL) after reaction for 6 hr and 45 μL of reagent R^1 solution (100 mM Tris-HCl pH 8.0, 0.5 mM TOOS, 10 U/mL peroxidase, 0.01% Triton X-100) were added and blended and absorbance at 550-700 nm was measured and used as a prevalue. As the standard, choline chloride was used. 1 mM choline chloride was diluted with 2× assay buffer up to 7 steps in 2-fold serial dilution, R^1 solution was treated similarly and the absorbance was measured. Furthermore, 15 μL of reagent R^2 solution (100 mM Tris-HCl pH 8.0, 1 mM 4-aminoantipyrine, 10 U/mL choline oxidase, 0.01% Triton X-100) was added, and the mixture was reacted at room temperature for 10 min, and absorbance at 550-700 nm was measured. The choline concentration per reaction time was calculated from the difference between the absorbance after R^2 solution addition and prevalue measured before R^2 addition and used as ATX activity value. inhibitory activity (%)=100×{1−[choline concentration (μM) of test substance administration group/choline concentration (μM) of solvent control group]} <calculating formula>

[1] = test system: Macaca fascicularis laser-induced high intraocular pressure model; test: Macaca fascicularis laser-induced high intraocular pressure model; assay type: in vivo; details: left eye with high intraocular pressure
Experimental: [Study of Action of ATX Inhibitor on Macaca fascicularis Intraocular Pressure]
The efficacy of ATX inhibitor (Example 5, hereinafter indicated as in example 5 in the Figures) for Macaca fascicularis laser-induced high intraocular pressure model was evaluated using the intraocular pressure lowering action as an index.
A green laser beam at wavelength 532 nm was uniformly irradiated to 360° around of the trabecular meshwork, which is the excretory passage of the aqueous humor, of the left eye alone, whereby high intraocular pressure was induced. The right eye was maintained normal. […]
The required amount of ATX inhibitor (Example 5) was weighed, transferred to an agate mortar and lightly ground. […] The oral vehicle was added to increase the amount and the pH was confirmed to be not exceeding 11.0 (measured value: pH10.55-10.88).
A 0.04 mol/L boric acid/phosphoric acid/acetic acid mixed solution (307 mL) was mixed with a 0.2 mol/L aqueous sodium hydroxide solution (193 mL) (pH about 8.4), pH was adjusted to 8.5 with 1 mol/L hydrochloric acid to prepare Britton-Robinson buffer (pH 8.5). […] 4.5 mg of ATX inhibitor (Example 5) was measured in a 10 mL measuring flask, the instillation administration vehicle (9.6 mL) was added and the mixture was sonicated for 30 min in an ultrasonication washing machine set to about 40° C. […]

`COc1ccc(-c2cnnc(OC[C@H]3CC[C@H](C(F)(F)F)CC3)c2)nc1[C@H]1C[C@@H]1C(=O)O` [Example 5, (1S,2S)-2-[3-methoxy-6-(6-{[trans-4-(trifluoromethyl)cyclohexyl]methoxy}pyridazin-4-yl)pyridin-2-yl]cyclopropanecarboxylic Acid] was tested, and the IC50 (human recombinant ATX) was 1 nM, the “Experimental Example 2 Rat single administration test (inhibitory activity (%) 8 hr after 1 mg/kg oral administration)” value (ATX activity in plasma) was 92% and the “intraocular pressure lowering action, single instillation administration” value ([1]; instillation, 0.0135 mg/eye, FIG. 8) was “statistically significant intraocular pressure lowering action”. For the same compound, the “intraocular pressure lowering action, single oral administration” value ([1]; oral, 100 mg/kg, FIG. 7) was “statistically significant intraocular pressure lowering action”.
